# Experimental data from patent US8641948B2, “Method of making solid dispersions of highly crystalline therapeutic compounds” (Novartis AG, priority 2006, dated 2014).
# Assay: Stability of the crystalline therapeutic compound (heat, light, oxidation)
# Assay type: physicochemical
# From the text: An example of a poorly water soluble therapeutic compound appropriate for the present invention is midostaurin which is a protein Kinase C inhibitor.
smiles,measurement,setting,value
CO[C@@H]1[C@H](N(C)C(=O)c2ccccc2)C[C@H]2O[C@]1(C)n1c3ccccc3c3c4c(c5c6ccccc6n2c5c31)C(=O)NC4 [midostaurin],stability to light and oxidation,,light-sensitive and oxidizes
same,thermal stability,at melting point of about 260° C.,decomposes upon melting
